Measured values reported in patent publication EP4206196A1, “PYRIMIDINE SUBSTITUTED DERIVATIVES AS TYK2 INHIBITORS” (Almirall S.A., priority 2021, dated 2023).

Tests used:
[1] = molecular target: T1, TYK2 (JH2domain-pseudokinase) (Homo sapiens, UniProt P29597); assay: TYK2 JH2 domain binding assay (KINOMEscan)
T1 construct: TYK2 (JH2domain-pseudokinase)-tagged T7 phage strains were prepared in an E. coli host derived from the BL21 strain; made in house; host or cells: E. coli BL21-derived host (T7 phage) or HEK-293 cells
Procedure, shortened: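 Competition binding of DNA-tagged TYK2 JH2 pseudokinase domain against immobilised affinity ligand, 1 h at room temperature in SeaBlock/PBS/Tween/DTT buffer with about 1% DMSO. Bound kinase eluted and quantified by qPCR. Kd taken from 11-point 3-fold series, usually 30,000 nM top, fitted by Levenberg-Marquardt nonlinear least squares.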

[2] = tested on: STAT1/3 through TYK2/JAK1; assay: IFNa induced STAT phosphorylation in HEK293 cells (SIE-bla reporter gene); type: cell-based; conditions: Homo sapiens, HEK293; HEK293T-sie-bla cells, IFNa at EC80, 4 hours; read-out: Inhibition of IFNa induced STAT phosphorylation HEK293 cells IC50
Procedure, shortened: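 HEK293T cells carrying a SIE-driven β-lactamase reporter were co-treated with compound (1/5 serial dilution, 10 points, 0.1% DMSO final) and IFNa at EC80 for 4 h at 37°C. β-Lactamase substrate was added to stop the stimulation, followed by overnight dark incubation and FRET read. IC50 from a four-parameter logistic fit.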

T1 sequence (P29597 589-875 limits assumed): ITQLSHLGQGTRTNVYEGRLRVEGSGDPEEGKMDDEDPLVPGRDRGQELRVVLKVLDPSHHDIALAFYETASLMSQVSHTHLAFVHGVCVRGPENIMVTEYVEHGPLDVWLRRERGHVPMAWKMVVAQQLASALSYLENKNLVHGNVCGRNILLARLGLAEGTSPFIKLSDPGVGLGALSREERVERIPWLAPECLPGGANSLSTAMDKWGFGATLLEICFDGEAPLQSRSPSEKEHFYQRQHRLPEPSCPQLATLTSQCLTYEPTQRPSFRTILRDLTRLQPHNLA

| SMILES | Kd [1] | IC50 [2] |
| --- | --- | --- |
| COc1c(Nc2cc(Nc3cc(C)nc(C)n3)ncn2)ncc(-c2cnn(C)c2C)c1C [Example 141, N6-[5-(1,5-dimethylpyrazol-4-yl)-3-methoxy-4-methyl-2-pyridyl]-N4-(2,6-dimethylpyrimidin-4-yl)pyrimidine-4,6-diamine] | < 0.0002 µM | 0.01 to 0.1 µM |
| Cc1cc(Nc2cc(Nc3ncc(-c4cnc(C)n4C)cc3N(C)S(C)(=O)=O)ncn2)nc(C)n1 [Example 142, N-[5-(2,3-dimethylimidazol-4-yl)-2-[[6-[(2,6-dimethylpyrimidin-4-yl)amino]pyrimidin-4-yl]amino]-3-pyridyl]-N-methyl-methanesulfonamide] | < 0.0002 µM | 0.01 to 0.1 µM |
| COc1c(-c2noc(C(F)(F)F)n2)ccnc1Nc1cc(Nc2cc(C)nc(C)n2)ncn1 [Example 143, N6-(2,6-dimethylpyrimidin-4-yl)-N4-[3-methoxy-4-[5-(trifluoromethyl)-1,2,4-oxadiazol-3-yl]-2-pyridyl]pyrimidine-4,6-diamine] | 0.001 to 0.01 µM | > 1 µM |
| Cc1cc(Nc2cc(Nc3ncc(-c4cnn(C)c4C)cc3NS(C)(=O)=O)ncn2)nc(C)n1 [Example 144, N-[5-(1,5-dimethylpyrazol-4-yl)-2-[[6-[(2,6-dimethylpyrimidin-4-yl)amino]pyrimidin-4-yl]amino]-3-pyridyl]methanesulfonamide] | < 0.0002 µM | 0.01 to 0.1 µM |
| Cc1cc(Nc2cc(Nc3ncccc3P(C)(C)=O)ncn2)nc(C)n1 [Example 145, N6-(3-dimethylphosphoryl-2-pyridyl)-N4-(2,6-dimethylpyrimidin-4-yl)pyrimidine-4,6-diamine] | < 0.0002 µM | 0.01 to 0.1 µM |
| COc1cc(-c2cnn(C)c2C)cnc1Nc1cc(Nc2cc(C)nc(C)n2)ncn1 [Example 146, N6-[5-(1,5-dimethylpyrazol-4-yl)-3-methoxy-2-pyridyl]-N4-(2,6-dimethylpyrimidin-4-yl)pyrimidine-4,6-diamine] | < 0.0002 µM | < 0.01 µM |
| Cc1cc(Nc2cc(Nc3ncc(-c4cn(C)cn4)cc3N(C)S(C)(=O)=O)ncn2)nc(C)n1 [Example 147, N-[2-[[6-[(2,6-dimethylpyrimidin-4-yl)amino]pyrimidin-4-yl]amino]-5-(1-methylimidazol-4-yl)-3-pyridyl]-N-methyl-methanesulfonamide] | < 0.0002 µM | 0.01 to 0.1 µM |
| COc1c(-c2nc(C)n(C)n2)ccnc1Nc1cc(Nc2cc(C)nc(C)n2)ncn1 [Example 148, N4-(2,6-dimethylpyrimidin-4-yl)-N6-[4-(1,5-dimethyl-1,2,4-triazol-3-yl)-3-methoxy-2-pyridyl]pyrimidine-4,6-diamine] | < 0.0002 µM | 0.01 to 0.1 µM |
| Cc1cc(Nc2cc(Nc3ncc(-c4cnn(C)c4C)cc3P(C)(C)=O)ncn2)nc(C)n1 [Example 149, N6-[3-dimethylphosphoryl-5-(1,5-dimethylpyrazol-4-yl)-2-pyridyl]-N4-(2,6-dimethylpyrimidin-4-yl)pyrimidine-4,6-diamine] | < 0.0002 µM | < 0.01 µM |
| Cc1cc(Nc2cc(Nc3nccc(C)c3S(C)(=O)=O)ncn2)nc(C)n1 [Example 150, N4-(2,6-dimethylpyrimidin-4-yl)-N6-(4-methyl-3-methylsulfonyl-2-pyridyl)pyrimidine-4,6-diamine] | < 0.0002 µM | < 0.01 µM |
| Cc1c(-c2cnc(Nc3cc(NC(=O)C4CC4)ncn3)c(S(C)(=O)=O)c2)cnn1C [Example 151, N-[6-[[5-(1,5-dimethylpyrazol-4-yl)-3-methylsulfonyl-2-pyridyl]amino]pyrimidin-4-yl]cyclopropanecarboxamide] | < 0.0002 µM | < 0.01 µM |
| Cc1c(-c2cnc(Nc3cc(Nc4ccc(F)cn4)ncn3)c(S(C)(=O)=O)c2)cnn1C [Example 152, N4-[5-(1,5-dimethylpyrazol-4-yl)-3-methylsulfonyl-2-pyridyl]-N6-(5-fluoro-2-pyridyl)pyrimidine-4,6-diamine] | < 0.0002 µM | < 0.01 µM |
| Cc1cc(Nc2cc(Nc3ncc(-c4cnn(C)c4C)c(C)c3S(C)(=O)=O)ncn2)nc(C)n1 [Example 153, N6-[5-(1,5-dimethylpyrazol-4-yl)-4-methyl-3-methylsulfonyl-2-pyridyl]-N4-(2,6-dimethylpyrimidin-4-yl)pyrimidine-4,6-diamine] | < 0.0002 µM | < 0.01 µM |
| Cc1cc(Nc2cc(Nc3ncc(-c4nc(C)n(C)n4)cc3N(C)S(C)(=O)=O)ncn2)ncn1 [Example 154, N-[5-(1,5-dimethyl-1,2,4-triazol-3-yl)-2-[[6-[(6-methylpyrimidin-4-yl)amino]pyrimidin-4-yl]amino]-3-pyridyl]-N-methyl-methanesulfonamide] | < 0.0002 µM | 0.01 to 0.1 µM |
| Cc1cc(Nc2cc(Nc3ncc(-c4nc(C)nn4C)cc3N(C)S(C)(=O)=O)ncn2)ncn1 [Example 155, N-[5-(2,5-dimethyl-1,2,4-triazol-3-yl)-2-[[6-[(6-methylpyrimidin-4-yl)amino]pyrimidin-4-yl]amino]-3-pyridyl]-N-methyl-methanesulfonamide] | 0.0002 to 0.001 µM | 0.1 to 1 µM |
| Cc1cc(Nc2cc(Nc3nc(C)ccc3S(C)(=O)=O)ncn2)ncn1 [Example 156, N6-(6-methyl-3-methylsulfonyl-2-pyridyl)-N4-(6-methylpyrimidin-4-yl)pyrimidine-4,6-diamine] | 0.001 to 0.01 µM | > 1 µM |
| Cc1cc(Nc2cc(Nc3ncc(C4CCOCC4)cc3N(C)S(C)(=O)=O)ncn2)nc(C)n1 [Example 157, N-[2-[[6-[(2,6-dimethylpyrimidin-4-yl)amino]pyrimidin-4-yl]amino]-5-(oxan-4-yl)pyridin-3-yl]-N-methylmethanesulfonamide] | 0.0002 to 0.001 µM | 0.01 to 0.1 µM |
| Cc1ccc(Nc2cc(Nc3ncc(-c4cnn(C)c4C)cc3N(C)S(C)(=O)=O)ncn2)nn1 [Example 158, N-[5-(1,5-dimethylpyrazol-4-yl)-2-[[6-[(6-methylpyridazin-3-yl)amino]pyrimidin-4-yl]amino]-3-pyridyl]-N-methyl-methanesulfonamide] | < 0.0002 µM | 0.01 to 0.1 µM |
| COc1c(-c2noc(C)n2)ccnc1Nc1cc(Nc2cc(C)nc(C)n2)ncn1 [Example 159, 4-N-(2,6-dimethylpyrimidin-4-yl)-6-N-[3-methoxy-4-(5-methyl-1,2,4-oxadiazol-3-yl)pyridin-2-yl]pyrimidine-4,6-diamine] | < 0.0002 µM | < 0.01 µM |
| Cc1c(-c2cnc(Nc3cc(NC(=O)[C@H]4C[C@H]4F)ncn3)c(N(C)S(C)(=O)=O)c2)cnn1C [Example 160, (1R,2R)-N-[6-[[5-(1,5-dimethylpyrazol-4-yl)-3-[methyl(methylsulfonyl)amino]-2-pyridyl]amino]pyrimidin-4-yl]-2-fluoro-cyclopropanecarboxamide] | < 0.0002 µM | 0.01 to 0.1 µM |
| Cc1c(-c2cnc(Nc3cc(NC(=O)C4CC4)ncn3)c(P(C)(C)=O)c2)cnn1C [Example 161, N-[6-[[3-dimethylphosphoryl-5-(1,5-dimethylpyrazol-4-yl)-2-pyridyl]amino]pyrimidin-4-yl]cyclopropanecarboxamide] | < 0.0002 µM | 0.01 to 0.1 µM |
| Cc1cc(Nc2cc(Nc3nc(C)c(-c4cnn(C)c4)cc3N(C)S(C)(=O)=O)ncn2)ncn1 [Example 162, N-methyl-N-[6-methyl-5-(1-methylpyrazol-4-yl)-2-[[6-[(6-methylpyrimidin-4-yl)amino]pyrimidin-4-yl]amino]-3-pyridyl]methanesulfonamide] | < 0.0002 µM | < 0.01 µM |
| Cc1cc(Nc2cc(Nc3nc(C)c(-c4cnn(C)c4C)cc3N(C)S(C)(=O)=O)ncn2)ncn1 [Example 163, N-[5-(1,5-dimethylpyrazol-4-yl)-6-methyl-2-[[6-[(6-methylpyrimidin-4-yl)amino]pyrimidin-4-yl]amino]-3-pyridyl]-N-methyl-methanesulfonamide] | < 0.0002 µM | < 0.01 µM |
| CN=S(C)(=O)c1cccnc1Nc1cc(Nc2cc(C)nc(C)n2)ncn1 (centres unmarked) [Example 164, N4-(2,6-dimethylpyrimidin-4-yl)-N6-[3-(N,S-dimethylsulfonimidoyl)-2-pyridyl]pyrimidine-4,6-diamine] | < 0.0002 µM | 0.01 to 0.1 µM |
| COc1cc(-c2cnn(C)c2)c(C)nc1Nc1cc(Nc2cc(C)ncn2)ncn1 [Example 165, N4-[3-methoxy-6-methyl-5-(1-methylpyrazol-4-yl)-2-pyridyl]-N6-(6-methylpyrimidin-4-yl)pyrimidine-4,6-diamine] | 0.0002 to 0.001 µM | 0.1 to 1 µM |
| Cc1cc(Nc2cc(Nc3ncc(C4CCCCO4)cc3N(C)S(C)(=O)=O)ncn2)nc(C)n1 (centres unmarked) [Example 167, N-[2-[[6-[(2,6-dimethylpyrimidin-4-yl)amino]pyrimidin-4-yl]amino]-5-tetrahydropyran-2-yl-3-pyridyl]-N-methyl-methanesulfonamide] | < 0.0002 µM | < 0.01 µM |
| CN=S(C)(=O)c1cc(-c2cnn(C)c2C)cnc1Nc1cc(Nc2cc(C)nc(C)n2)ncn1 (centres unmarked) [Example 168, N6-[5-(1,5-dimethylpyrazol-4-yl)-3-(N,S-dimethylsulfonimidoyl)-2-pyridyl]-N4-(2,6-dimethylpyrimidin-4-yl)pyrimidine-4,6-diamine] | < 0.0002 µM | < 0.01 µM |
| COCCn1cnc(-c2ccnc(Nc3cc(Nc4cc(C)nc(C)n4)ncn3)c2OC)n1 [Example 169, N6-(2,6-dimethylpyrimidin-4-yl)-N4-[3-methoxy-4-[1-(2-methoxyethyl)-1,2,4-triazol-3-yl]-2-pyridyl]pyrimidine-4,6-diamine] | < 0.0002 µM | 0.01 to 0.1 µM |
